Assay results as given in article PMC12743403, “Green-synthesized silver nanoparticles from Camellia sinensis: mechanistic insights into phenolic-mediated multifunctional biological activities” (BMC Plant Biology, 2025).

System: T1, urease
T1 construct: gene jack bean urease
Details: 100 mM urea, room temperature, 10 min; reference inhibitor

In the case of `NC(N)=S` [Thiourea], the “Urease IC50” value is reported as 24.5 ± 0.7 µg/mL.
